Reference: patent US20060251703A1, “Composition comprising an edible acid or its acidic salt and the use thereof” (priority 2003, published 2006)
Counter-ions that a name gives are not always drawn.

How the values were obtained:
[1] = tested on: mouse's leaching cell solution (abdominal cavity cells); assay: Drug depressing effect on histamine leaching when treated with 48/80 compound; type: cell-based; conditions: testing drug 100(mg/ml); for inhibition at 100000 µg/mL: Mus musculus, read-out: Depression rate (%); for inhibition at 100000 µg/mL / Depression rate (%): 48/80 compound-induced histamine release; for Histamine Releasing rate (%): 48/80 compound, control 90.5, blank 9.0
Procedure: This is a comparative testing of drug depressing effect on the amount of leaching histamines when is treated with 48/80 (Sigma, St. MO, USA) compound.
(1). Preparation of leaching cell solution from mouse body.
A mouse is killed and bloodletting. Then 10 ml of Locke's solution containing 0.1% bovine serum protein is injected into its abdominal cavity. After abdominal cavity being light massaged, the cavity is cut and the Locke's solution is removed. Cavity is washed with another 5 ml of Locke's solution, and this washed solution is added to the late one. This combined solution is centrifuged at 600 rpm for 5 minutes. The sediments are washed with 5 ml of cool Locke's solution. Adding 3 ml of cold Locke's solution to the washed sediments, then a leached cell solution of abdominal cavity is obtained. The composition of Locke's solution is: NaCL […], KCL 0.2%, CaCL2 0.15%, glucose 1.0%, in w/v, and the rest distillated water.
(2). Drug depressing effect on the amount of leaching histamines when treated with 48/80 compound.
Each testing compound listed in the table 1 is dissolved in a Ringer's solution containing 1% NaHCO3, and then diluted with Locke's solution to the indicated concentration. 1.0 ml of each of those solutions in last term is mixed with 0.3 ml of mouse's leaching cell solution and 0.5 ml of Locke's solution. This mixture is cultivated at 37° C. for 5 minutes. Then adding 0.2 ml of Locke's solution of 48/80 compound (1 mg/100 ml) and cultivated at 37° C. for 10 minutes. Then the reaction is stopped by cooling, and centrifuged at 2,500 rpm for 10 minutes. 1.7 ml of decanted solution and 0.3 ml of sediments are obtained. 0.1 ml of water and 0.2 ml of 100% trichloroacetic acid are added to the decanted solution. 1.5 ml of Locke's solution and 0.2 ml of 100% trichloroacetic acid are added to the sediments washed solution. They are cultivated at room temperature for 30 minutes. After cultivation, the mixtures are centrifuged at 3,000 rpm for 15 minutes, respectively. 0.35 ml of each of the former two solutions is sampled. In each sample, 1.65 ml of water, 0.4 ml of 1N NaOH and 0.1 ml of 0.5% OPT (o-phthalic aldehyde) in methanol are added and cultivated at room temperature for 4 minutes. The reaction is stopped by adding 0.2 ml of 2M citric acid. And finally, determine the amount of released histamines in the tested solution by fluorescence method. By the analysis, results of the depression rate of histamines could be calculated.
Locke's solution is instead of each drug in control group, and instead of both drug and 48/80 compound solution in blank group. The histamine releasing rate (A) can be calculated by following equation. […] Where (Hs) is the total amount of histamine in the decanted solution, and (Hr) is the total amount of histamine in the sediment. (A)=[(Hs)/{(Hs)+(Hr)}]×100%. Then the depression rate is: =100−[(A−A in blank group)/(A−A in control group)]×100%.

[2] = tested on: oxazolone-coated mouse ear; assay: Anti-delayed type allergy reaction (oxazolone ear inflammation); type: in vivo; conditions: 1 mg/ear coated, ears weighed after 24 hr; for inhibition in vivo at 1 mg/ear: Mus musculus, topical, read-out: Depression rate (%)
Procedure: The weights of testing mice are ranging from 20 g to 30 g. They are coated with 0.1 ml of oxazolone alcohol solution (0.5 w/v %) on the hair cleaned part of abdomen. After five days, each of the listed drugs is dissolved in oxazolone acetone solution (0.5 w/v %), and 10 μl each of the solutions is token by micro pipette to coat on both sides of the right ear. After 24 hr, the mouse is killed by ether and punched a circle area of a diameter of 5.5 mm on both right and left ears in corresponding part by a puncher machine (portions of drug coated and the blank). The punched portions are weighed and the inflammation rates calculated. The control group are coated only with the oxazolone acetone solution (0.5 w/v %). The inflammation depressing rates of each drug are calculated by following equation: Inflammation depressing rate(%)=[(weight of drug coated right ear)−(weight of non-drug-coated left ear)]×100%/(weight of non-drug-coated left ear)

[3] = target: xanthine oxidase; assay: Inhibition of xanthine oxidase; type: biochemical; conditions: xanthine oxidase 0.01 u/ml, xanthine 5×10^−5M, pH=7.4, UV 295 nm; read-out: IC50 (concentration for depression of 50% activity of oxidase)
Chain of xanthine oxidase (P47989 whole entry, species assumed): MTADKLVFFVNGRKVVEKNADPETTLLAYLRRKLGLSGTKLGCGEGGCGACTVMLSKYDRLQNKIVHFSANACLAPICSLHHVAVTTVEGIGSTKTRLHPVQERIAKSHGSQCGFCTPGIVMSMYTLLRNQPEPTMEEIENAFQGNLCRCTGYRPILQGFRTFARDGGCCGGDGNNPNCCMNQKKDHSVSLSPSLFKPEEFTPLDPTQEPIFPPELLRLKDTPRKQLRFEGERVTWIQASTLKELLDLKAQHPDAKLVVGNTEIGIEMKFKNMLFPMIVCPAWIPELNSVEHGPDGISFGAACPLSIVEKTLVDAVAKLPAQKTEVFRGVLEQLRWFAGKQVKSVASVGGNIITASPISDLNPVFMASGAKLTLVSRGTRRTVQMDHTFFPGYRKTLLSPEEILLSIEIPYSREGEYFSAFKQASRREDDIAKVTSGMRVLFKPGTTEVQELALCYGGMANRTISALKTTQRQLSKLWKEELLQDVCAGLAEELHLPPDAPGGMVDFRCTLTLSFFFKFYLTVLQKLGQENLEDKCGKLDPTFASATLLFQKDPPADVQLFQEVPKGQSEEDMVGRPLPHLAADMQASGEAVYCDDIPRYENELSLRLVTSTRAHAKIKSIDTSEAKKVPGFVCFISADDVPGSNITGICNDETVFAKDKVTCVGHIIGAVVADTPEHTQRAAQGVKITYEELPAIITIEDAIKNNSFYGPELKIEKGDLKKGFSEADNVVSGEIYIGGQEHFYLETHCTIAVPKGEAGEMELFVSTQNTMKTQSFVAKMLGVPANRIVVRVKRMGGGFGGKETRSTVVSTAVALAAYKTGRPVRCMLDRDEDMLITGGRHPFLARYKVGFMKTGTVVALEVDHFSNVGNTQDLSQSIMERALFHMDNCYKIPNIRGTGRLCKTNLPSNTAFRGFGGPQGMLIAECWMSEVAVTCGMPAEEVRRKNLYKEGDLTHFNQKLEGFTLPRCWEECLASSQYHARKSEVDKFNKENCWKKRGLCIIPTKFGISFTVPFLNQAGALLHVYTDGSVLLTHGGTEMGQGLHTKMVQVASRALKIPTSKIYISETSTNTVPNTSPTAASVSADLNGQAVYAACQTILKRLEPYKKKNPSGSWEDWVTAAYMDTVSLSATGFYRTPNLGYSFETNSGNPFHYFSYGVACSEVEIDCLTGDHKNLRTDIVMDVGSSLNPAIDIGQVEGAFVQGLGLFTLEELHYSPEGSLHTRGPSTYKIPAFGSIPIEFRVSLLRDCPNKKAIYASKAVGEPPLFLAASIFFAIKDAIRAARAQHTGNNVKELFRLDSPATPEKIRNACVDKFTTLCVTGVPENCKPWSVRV
Procedure: The production process of peroxide free radical can be tested by Xanthine oxidase substrate in vito (Fridowich, I., J. Biol. Chem., 215, 4053˜4057, 1970). […] The test of inhibiting xanthine oxidase is carried out by the method of H. M. Kalckar (J. Biol. Chem., 167, 429˜443, 1947). The basic principle is xanthine being acted by xanthine oxidase to form uric acid that is quantitative analyzed by photometric method. By the amount of determined uric acid, is calculated the degree of inhibiting effect for the activity of xanthine oxidase.
The testing process is, adding a final concentration of 0.01 u/ml of xanthine oxidase in 1 cm cell of photometric apparatus, and adding 0.05M (pH=7.4) of phosphoric acid buffer or inhabitant The reaction time is counted from the point at adding xanthene's to a final concentration reaching 5×10^−5M. For reducing the error arose by absorption of liquid in photometric analysis, the compound of xanthine oxidase, xanthine and drug are boiled for the reference. UV selected at 295 nm, data are recorded at an interval of 30 seconds for 2 minutes. The unit of activity change of xanthine oxidase is 0.001M/min. Calculate the inhibiting rate for each addition amount of drug. To use drug concentration (M) as a function of inhibiting rate (%), and to trace the data on a log scale paper, the 50% depression rate of the oxidase (IC50) could be determined by regression line method.

[4] = pH of saliva after ingesting citric acid; type: in vivo, human; conditions: 700 mg citric acid ingested
Procedure: Saliva is a kind of humors and, normally, has the pH of around 6.8. For the purpose of reference, to test the pH of the saliva of a person was carried out who had brushed before testing and ingesting 700 mg of citric acid. […]

| Structure (SMILES) | inhibition at 100000 µg/mL [1] [%] | Histamine Releasing rate (%) [1] [%] | inhibition in vivo at 1 mg/ear [2] [%] | IC50 [3] [nM] | also measured |
| --- | --- | --- | --- | --- | --- |
| CN(C)CCOC(c1ccccc1)c1ccccc1 [Diphenhydramine hydrochloride, reference compound] | 32.1 | 64.7 | 20 |  |  |
| O=C(O)C(O)C(O)C(=O)O (stereo not drawn) [Tartaric acid] | 100 | 8.9 | 97 | 102 |  |
| O=C1O[C@H](CO)[C@@H](O)[C@H](O)[C@H]1O [gluconolactone] | 100 | 8.9 | 97 |  |  |
| CC(O)C(=O)O (stereo not drawn) [Lactic acid] | 100 | 8.9 | 97 |  |  |
| CCCCCCC(O)C(=O)O (stereo not drawn) [α-hydroxy octanoic acid] | 100 | 9.0 | 94 |  |  |
| O=C(O)CO [α-hydroxy ethanoic acid] |  | 9.0 |  |  | Depression rate (%) [1]: 100%; Depression rate (%) [2]: 98% |
| Nc1nc2ncc(CNc3ccc(C(=O)N[C@@H](CCC(=O)O)C(=O)O)cc3)nc2c(=O)[nH]1 [Folic acid, reference compound] |  |  |  | 662 |  |
| O=C(O)CC(O)(CC(=O)O)C(=O)O [Citric acid] | 100 | 8.7 | 100 | 100 | pH value of saliva ([4]; testing time 0 minute): 6.8; pH value of saliva ([4]; testing time 20 minute): 6.45; pH value of saliva ([4]; testing time 60 minute): 6.26; pH value of saliva ([4]; testing time 90 minute): 6.6; pH value of saliva ([4]; testing time 120 minute): 6.8 |
| O=C(O)/C=C/C(=O)O [Fumaric acid] | 100 | 8.9 | 98 | 101 |  |
| O=C(O)CC(O)C(=O)O (stereo not drawn) [Malic acid] | 100 | 9.0 | 96 | 112 |  |
| CC1(C)[C@@H](O[C@H]2O[C@H](C(=O)[O-])[C@@H](O)[C@H](O)[C@H]2O[C@@H]2O[C@H](C(=O)[O-])[C@@H](O)[C@H](O)[C@H]2O)CC[C@]2(C)[C@H]3C(=O)C=C4[C@@H]5C[C@@](C)(C(=O)[O-])CC[C@]5(C)CC[C@@]4(C)[C@]3(C)CC[C@@H]12.[Na+].[Na+].[Na+] [Trisodium glycyrrhizinate, reference compound] |  | 65.5 |  |  | Depression rate (%) [1]: 30.9% |
